Consider one molecule from patent US20130225483A1, “New Treatments of Hepatitis C Virus Infection” (priority 2010, published 2013).

The structures appear in SMILES notation.

In the assay the test system is HCV genotype 2 (GT2) and genotype 3 (GT3). As to the kind of experiment: Phase II clinical study: proportion of patients HCV RNA negative by LOQ. The assay is classed as in vivo. The following applies: monotherapy arm (600 mg BID 1 week, then 1000 mg QD), 25 IU/mL. Here is the method: The efficacy of the therapy regimen may be monitored using standard protocols. Treatment may be followed by determinations of HCV in serum and measurement of serum ALT levels. For example, the patients may be assessed for the presence of HCV RNA in their plasma. HCV RNA (IU/mL) can be measured at regular intervals during the treatment, e.g., at Day 1 (pre-dose and 4, 8, and 12 hours post-dose) and pre-dose at Day 2, Day 3, Day 8, Day 15, Day 29, and at Week 12, Week 24, Week 36, Week 48, Week 72 (when applicable), and at follow up. In addition, the HCV strains in the patient can be sequenced and assessed for identification of mutations selecting for resistance.
As used herein, LOD means limit of detection (serum HCV RNA is less than 10 IU/mL) and LOQ means limit of quantification (serum HCV RNA is less than 25 IU/mL). HCV RNA levels can be measured using commercially available methods. […]

In the case of `C/C=C/C[C@@H](C)[C@@H](O)[C@H]1C(=O)N[C@@H](CC)C(=O)N(C)[C@H](C)C(=O)N(CC)[C@@H](C(C)C)C(=O)N[C@@H](C(C)C)C(=O)N(C)[C@@H](CC(C)C)C(=O)N[C@@H](C)C(=O)N[C@H](C)C(=O)N(C)[C@@H](CC(C)C)C(=O)N(C)[C@@H](CC(C)C)C(=O)N(C)[C@@H](C(C)C)C(=O)N1C` [alisporivir, Alisporivir], the “patients achieved HCV RNA negative results (fraction in words)” value was “one third”.
